Experiments:
[1] = system: ssDNA (DNA, single strand) CCAGTTCGTAGTAACCC; test: luminescence response; conditions: none stated in assay buffer; 10 mM Tris-HCl, pH 7.2; 1.5 µM complex; 5 µM DNA highest tested
[2] = system: ds26 (DNA, duplex) CAATCGGATCGAATTCGATCCGATTG; test: G4-FID, thiazole orange displacement; conditions: 100 mM KCl; 10 mM Tris-HCl, pH 7.2; 0.75 µM thiazole orange; <15% displaced at highest concentration 1.25 µM
[3] = system: c-myc (DNA, G4) TGAGGGTGGGTAGGGTGGGTAA; test: G4-FID, thiazole orange displacement; conditions: 100 mM KCl; 10 mM Tris-HCl, pH 7.2; 0.25 µM DNA; 0.50 µM thiazole orange displaced
[4] = system: F21T (DNA, G4) GGGTTAGGGTTAGGGTTAGGG; test: FRET melting; conditions: 100 mM K+; potassium cacodylate, pH 7.0; 5 µM compound; 0.2 µM DNA
[5] = system: F10T (DNA, hairpin, hexaethylene glycol (HEG) linker between 8 and 9) TATAGCTATATAGCTATAT; test: FRET melting; conditions: 10 mM Li+; lithium cacodylate, pH 7.4; 5 µM compound; 0.2 µM DNA
[6] = system: c-myc (DNA, G4) TGAGGGTGGGTAGGGTGGGTAA; test: luminescence response; conditions: 20 mM KCl (annealing); 10 mM Tris-HCl, pH 7.2; 1.5 µM complex; 5 µM DNA; intensity ratio 7.5 over ds26, 5.5 over ssDNA

Row | binding [1] | DC50 [2] [nM] | G4DC50 [3] [µM] | ΔTm [4] | ΔTm [5] [°C] | binding [6] | Structure (SMILES)
1 | no | > 1250 | 0.85 | ~ 6.0 °C | 2 | – | Cc1ccc(-c2ccc(C)cn2)nc1.[Ir+3].[c-]1ccccc1-c1nc2ccccc2[nH]1.[c-]1ccccc1-c1nc2ccccc2[nH]1
2 | – | – | – | – | – | yes | Cc1ccc(-c2ccc(C)cn2)nc1.[Ir+3].[c-]1ccccc1-c1nc2ccccc2s1.[c-]1ccccc1-c1nc2ccccc2s1

Source: publication PMC5707507 (2015)
